Measurements reported in patent publication US20240287154A1, “MC3R AGONIST PEPTIDES” (The Regents of the University of Michigan, priority 2021, published 2024).
Non-standard residues stand in square brackets, D forms with d. Residues, ends and D or L forms follow the SMILES beside them. Phe(4-I) = N[C@@H](Cc1ccc(I)cc1)C(=O)O; NMeH = CN[C@@H](Cc1c[nH]cn1)C(=O)O; NMeK = CN[C@@H](CCCCN)C(=O)O; dNle = CCCC[C@@H](N)C(=O)O; Nle = CCCC[C@H](N)C(=O)O; dAbu = CC[C@@H](N)C(=O)O; dNMeA = CN[C@H](C)C(=O)O; Aib = CC(C)(N)C(=O)O

Biological target: human MC4R (Homo sapiens, UniProt P32245)
Sequence (P32245 whole entry): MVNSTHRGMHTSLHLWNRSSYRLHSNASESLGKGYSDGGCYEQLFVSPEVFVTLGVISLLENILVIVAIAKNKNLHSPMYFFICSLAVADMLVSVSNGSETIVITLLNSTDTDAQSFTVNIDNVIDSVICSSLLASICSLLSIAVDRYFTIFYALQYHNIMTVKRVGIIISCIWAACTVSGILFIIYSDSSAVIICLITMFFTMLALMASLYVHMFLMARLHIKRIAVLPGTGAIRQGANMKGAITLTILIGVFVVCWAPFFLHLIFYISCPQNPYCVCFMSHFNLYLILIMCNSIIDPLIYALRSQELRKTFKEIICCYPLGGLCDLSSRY
Assay: Intracellular cAMP levels in live cells, MC3R selectivity relative to MC4R
Type: cell-based
Details: cAMP assays in human MC3R and human MC4R stable cell lines
Procedure: The stable cell lines were grown and maintained in selection media consisting of Dulbecco's modified Eagle media (DMEM) with 4.5 g/l D-glucose, and 4 mM L-glutamine (Thermo Fisher Scientific, Waltham, MA), supplemented with 10% fetal bovine serum, 100 units/ml penicillin, 100 μg/ml streptomycin, 2.5 μg/ml amphotericin B, 200 μg/ml hygromycin B (for positive selection of the GScAMP22f luciferase reporter), and Geneticin™ (G418) 700 μg/ml (for MC3R or MC4R selection). Actual serum concentration during the assay is estimated to be about 1%. Cell line identity is routinely verified by qPCR and MC3R- and MC4R-specific oligonucleotides.
The assay for the determination of the CAMP response in live cells was described previously. […] Ccells were seeded at a density of 20,000 cells per well using 384-well poly-D lysine-coated, clear bottom, and black-wall assay plates (Corning Inc. Corning, NJ). Cells were allowed to attach to the plates for 18 to 24 h after which growth media was removed and 20 ul of 4% D-luciferin (Promega) in CO2 independent, serum-free medium (Thermo Fisher Scientific) was added to each well. […] Intracellular cAMP levels were measured using an FDSS 7000EX Functional Drug Screening System (Hamamatsu Photonics, Hamamatsu, Japan) in the Center for Chemical Genomics at the Life Sciences Institute. This instrument allowed the in-line addition of test-peptides and receptor agonists while simultaneously acquiring the luminescence signal from live cells. […] A submaximal forskolin (20 μM) concentration was also included to serve as a normalization reference to account for cell number variations and differences in assay transducer efficiency between cell lines.
With this set up it was possible to evaluate the direct agonist effect of the test-peptides on the MC3R and MC4R cell lines during measurement window 1, while the antagonist profile in the presence of EC90 α-MSH was determined on measurement window 2. […] EC50 or IC50 potency values were determined by non-linear regression by fitting the data to a sigmoid four-parameter variable slope model using the GraphPad Prism version 8.4 software package (San Diego CA).

Row | Compound | MC3R selectivity (relative to MC4R)
1 | CCCC[C@H](NC(C)=O)C(=O)N[C@H](C)C(=O)N[C@@H](Cc1c[nH]cn1)C(=O)N[C@@H](Cc1ccc(I)cc1)C(=O)N[C@@H](CCCNC(=N)N)C(=O)N[C@H](Cc1c[nH]c2ccccc12)C(=O)N[C@@H](CC(=O)O)C(=O)N[C@@H](CCCNC(=N)N)C(N)=O [CTX-1170, Nle-D-Ala-His-Phe(4-I)-Arg-D-Trp-Asp-Arg] (Ac-[Nle][dA]H[Phe(4-I)]R[dW]DR-NH2) | 67
2 | CCCC[C@H](NC(=O)[C@@H](NC(=O)[C@H](N)Cc1ccc(O)cc1)C(C)C)C(=O)N[C@H](C)C(=O)N[C@@H](Cc1c[nH]cn1)C(=O)N[C@@H](Cc1ccc(I)cc1)C(=O)N[C@@H](CCCNC(=N)N)C(=O)N[C@H](Cc1c[nH]c2ccccc12)C(=O)N[C@@H](CC(=O)O)C(N)=O [CTX-1171, D-Tyr-Val-Nle-D-Ala-His-Phe(4-I)-Arg-D-Trp-Asp] (H-[dY]V[Nle][dA]H[Phe(4-I)]R[dW]D-NH2) | 234
3 | CCCC[C@H](NC(C)=O)C(=O)N[C@@H](C(=O)N[C@@H](Cc1c[nH]cn1)C(=O)N[C@@H](Cc1ccccc1)C(=O)N[C@@H](CCCNC(=N)N)C(=O)N[C@H](Cc1c[nH]c2ccccc12)C(=O)N[C@@H](CC(=O)O)C(=O)N[C@@H](CCCNC(=N)N)C(=O)N[C@@H](Cc1ccccc1)C(=O)NCC(=O)O)C(C)C [CTX-1181, Nle-D-Val-His-Phe-Arg-D-Trp-Asp-Arg-Phe-Gly] (Ac-[Nle][dV]HFR[dW]DRFG-OH) | 718
4 | CCCC[C@H](NC(C)=O)C(=O)N[C@H](CCCC)C(=O)N[C@@H](Cc1c[nH]cn1)C(=O)N[C@@H](Cc1ccccc1)C(=O)N[C@@H](CCCNC(=N)N)C(=O)N[C@H](Cc1c[nH]c2ccccc12)C(=O)N[C@@H](CC(=O)O)C(=O)N[C@@H](CCCNC(=N)N)C(=O)N[C@@H](Cc1ccccc1)C(=O)NCC(=O)O [CTX-1182, Nle-D-Nle-His-Phe-Arg-D-Trp-Asp-Arg-Phe-Gly] (Ac-[Nle][dNle]HFR[dW]DRFG-OH) | 1406
5 | CCCC[C@H](NC(C)=O)C(=O)N(C)[C@H](C)C(=O)N[C@@H](Cc1c[nH]cn1)C(=O)N[C@@H](Cc1ccccc1)C(=O)N[C@@H](CCCNC(=N)N)C(=O)N[C@H](Cc1c[nH]c2ccccc12)C(=O)N[C@@H](CC(=O)O)C(=O)N[C@@H](CCCNC(=N)N)C(=O)N[C@@H](Cc1ccccc1)C(=O)NCC(=O)O [CTX-1183, Nle-NMe-D-Ala-His-Phe-Arg-D-Trp-Asp-Arg-Phe-Gly] (Ac-[Nle][dNMeA]HFR[dW]DRFG-OH) | 515
6 | CCCC[C@H](NC(C)=O)C(=O)N1CCC[C@@H]1C(=O)N[C@@H](Cc1c[nH]cn1)C(=O)N[C@@H](Cc1ccccc1)C(=O)N[C@@H](CCCNC(=N)N)C(=O)N[C@H](Cc1c[nH]c2ccccc12)C(=O)N[C@@H](CC(=O)O)C(=O)N[C@@H](CCCNC(=N)N)C(=O)N[C@@H](Cc1ccccc1)C(=O)NCC(=O)O [CTX-1184, Nle-D-Pro-His-Phe-Arg-D-Trp-Asp-Arg-Phe-Gly] (Ac-[Nle][dP]HFR[dW]DRFG-OH) | 28
7 | CCCC[C@H](NC(C)=O)C(=O)NCC(=O)N[C@@H](Cc1c[nH]cn1)C(=O)N[C@@H](Cc1ccccc1)C(=O)N[C@@H](CCCNC(=N)N)C(=O)N[C@H](Cc1c[nH]c2ccccc12)C(=O)N[C@@H](CC(=O)O)C(=O)N[C@@H](CCCNC(=N)N)C(=O)N[C@@H](Cc1ccccc1)C(=O)NCC(=O)O [CTX-1185, Nle-Gly-His-Phe-Arg-D-Trp-Asp-Arg-Phe-Gly] (Ac-[Nle]GHFR[dW]DRFG-OH) | 2,312
8 | CCCC[C@H](NC(C)=O)C(=O)N[C@H](C)C(=O)N(C)[C@@H](Cc1c[nH]cn1)C(=O)N[C@@H](Cc1ccccc1)C(=O)N[C@@H](CCCNC(=N)N)C(=O)N[C@H](Cc1c[nH]c2ccccc12)C(=O)N[C@@H](CC(=O)O)C(=O)N[C@@H](CCCNC(=N)N)C(=O)N[C@@H](Cc1ccccc1)C(=O)NCC(=O)O [CTX-1186, Nle-D-Ala-NMe-His-Phe-Arg-D-Trp-Asp-Arg-Phe-Gly] (Ac-[Nle][dA][NMeH]FR[dW]DRFG-OH) | 1884
9 | CCCC[C@H](NC(C)=O)C(=O)N[C@H](C)C(=O)N(C)[C@@H](CCCCN)C(=O)N[C@@H](Cc1ccccc1)C(=O)N[C@@H](CCCNC(=N)N)C(=O)N[C@H](Cc1c[nH]c2ccccc12)C(=O)N[C@@H](CC(=O)O)C(=O)N[C@@H](CCCNC(=N)N)C(=O)N[C@@H](Cc1ccccc1)C(=O)NCC(=O)O [CTX-1189, Nle-D-Ala-NMe-Lys-Phe-Arg-D-Trp-Asp-Arg-Phe-Gly] (Ac-[Nle][dA][NMeK]FR[dW]DRFG-OH) | 1
10 | CC[C@@H](NC(=O)[C@H](CCC(=O)O)NC(=O)[C@@H](NC(=O)[C@H](Cc1ccc(O)cc1)NC(C)=O)C(C)C)C(=O)N[C@@H](Cc1c[nH]cn1)C(=O)N[C@@H](Cc1ccc(I)cc1)C(=O)N[C@@H](CCCNC(=N)N)C(=O)N[C@H](Cc1c[nH]c2ccccc12)C(=O)N[C@@H](CC(=O)O)C(=O)N[C@@H](CCCNC(=N)N)C(=O)N[C@@H](Cc1ccccc1)C(=O)NCC(=O)O [CTX-1194, Tyr-Val-Glu-D-Abu-His-Phe(4-I)-Arg-D-Trp-Asp-Arg-Phe-Gly] (Ac-YVE[dAbu]H[Phe(4-I)]R[dW]DRFG-OH) | 49
11 | CC(=O)N[C@@H](Cc1ccc(O)cc1)C(=O)N[C@H](C(=O)N[C@@H](CCC(=O)O)C(=O)NC(C)(C)C(=O)N[C@@H](Cc1c[nH]cn1)C(=O)N[C@@H](Cc1ccc(I)cc1)C(=O)N[C@@H](CCCNC(=N)N)C(=O)N[C@H](Cc1c[nH]c2ccccc12)C(=O)N[C@@H](CC(=O)O)C(=O)N[C@@H](CCCNC(=N)N)C(=O)N[C@@H](Cc1ccccc1)C(=O)NCC(=O)O)C(C)C [CTX-1195, Tyr-Val-Glu-Aib-His-Phe(4-I)-Arg-D-Trp-Asp-Arg-Phe-Gly] (Ac-YVE[Aib]H[Phe(4-I)]R[dW]DRFG-OH) | 51
12 | CCCC[C@H](NC(C)=O)C(=O)N[C@H](C)C(=O)N[C@@H](CCCNC(=N)N)C(=O)N[C@@H](Cc1ccc(I)cc1)C(=O)N[C@@H](CCCNC(=N)N)C(=O)N[C@H](Cc1c[nH]c2ccccc12)C(=O)N[C@@H](CC(=O)O)C(=O)N[C@@H](CCCNC(=N)N)C(=O)N[C@@H](Cc1ccccc1)C(=O)NCC(=O)O [CTX-1197, Nle-D-Ala-Arg-Phe(4-I)-Arg-D-Trp-Asp-Arg-Phe-Gly] (Ac-[Nle][dA]R[Phe(4-I)]R[dW]DRFG-OH) | 250
13 | CCCC[C@H](NC(C)=O)C(=O)N[C@H](C)C(=O)N[C@@H](Cc1c[nH]cn1)C(=O)N[C@@H](Cc1ccc(I)cc1)C(=O)N[C@H](CCCNC(=N)N)C(=O)N[C@@H](Cc1c[nH]c2ccccc12)C(=O)N[C@@H](CC(=O)O)C(=O)N[C@@H](CCCNC(=N)N)C(=O)N[C@@H](Cc1ccccc1)C(=O)NCC(=O)O [CTX-1501, Nle-D-Ala-His-Phe(4-I)-D-Arg-Trp-Asp-Arg-Phe-Gly] (Ac-[Nle][dA]H[Phe(4-I)][dR]WDRFG-OH) | 0.01
14 | CCCC[C@H](NC(C)=O)C(=O)N[C@H](C)C(=O)N[C@@H](Cc1c[nH]cn1)C(=O)N[C@@H](Cc1ccc(I)cc1)C(=O)N[C@@H](CCCNC(=N)N)C(=O)N[C@H](Cc1ccccc1)C(=O)N[C@@H](CC(=O)O)C(=O)N[C@@H](CCCNC(=N)N)C(=O)N[C@@H](Cc1ccccc1)C(=O)NCC(=O)O [CTX-1503, Nle-D-Ala-His-Phe(4-I)-Arg-D-Phe-Asp-Arg-Phe-Gly] (Ac-[Nle][dA]H[Phe(4-I)]R[dF]DRFG-OH) | 214
